Laboratory results as given in patent US5965539A, “Inhibitors of prenyl transferases” (Univeristy of Pittsburgh, priority 1996, dated 1999).
pIC50: −log10 of the molar value. Like-named read-outs stand apart in the source and are kept apart here.

How the values were obtained:
GGTase I = molecular target: T1, GGTase I (Homo sapiens, UniProt P53609); assay: GGTase I activity assay: transfer of [3H]geranylgeranyl to recombinant H-Ras-CVLL, Daudi 60,000xg supernatant; assay type: biochemical
T1 construct: FTase and GGTase I activities from 60,000×g supernatants of human Burkitt lymphoma (Daudi) cells; endogenous in cells; host or cells: human Burkitt lymphoma (Daudi) cells, 60,000xg supernatant (partially purified)
Experimental: FTase and GGTase I activities from 60,000×g supernatants of human Burkitt lymphoma (Daudi) cells (ATCC, Rockville, Md., USA) were assayed as described previously for FTase (41). Briefly, 100 μg of the supernatant was incubated in 50 mM Tris, pH 7.5, 50 μM ZnCl2, 20 mM KCl and 1 mM dithiothreitol (DTT). The reaction was incubated at […] for 30 min with recombinant Ha-Ras-CVLS (11 μM) and [^3 H]FPP (625 nM; 16.3 Ci/mmol) for FTase, and recombinant Ha-Ras-CVLL (5 μM) and [^3 H]geranylgeranylpyrophosphate (525 nM; 19.0 Ci/mmol) for GGTase I. The peptidomimetics were mixed with FTase and GGTase before adding to the reaction mixture.
Human Burkitt lymphoma (Daudi) cells (ATCC, Rockville, Md.) were grown in suspension in RPMI 1640 medium containing 10% fetal bovine serum (FBS) and 1% Pen-Strep in a humidified 10% CO2 incubator at 37° C. The cells were harvested and sonicated in 50 mM Tris, pH 7.5, 1 mM EDTA, 1 mM EGTA, 25 μg/ml leupeptin, 1 mM phenylmethylsulfonyl fluoride. Homogenates were then spun at 12,000×g and the resulting supernatant further spun at 60,000×g. The supernatant was assayed for both FTase and GGTase I. Briefly, 100 μg of the supernatants was incubated in 50 mM Tris, pH 7.5, 50 μM ZnCl2, 20 mM KCl, 3 mM MgCl2 and 1 mM DTT. For FTase assays, the reaction was incubated at 37° C. for 30 minutes with recombinant H-Ras-CVLS (11 μM) and [^3 H] FPP (625 nM; 16.3 Ci/mmol). For GGTase assays, the reaction was also incubated for 30 minutes at 37° C. but with recombinant H-Ras-CVLL (5 μM) and [^3 H] GGPP (525 nM; 19.0 Ci/mmol). The reaction was stopped and passed through glass fiber filters to separate free and incorporated label. For inhibition studies, the peptidomimetics were premixed with FTase or GGTase I prior to adding the remainder of the reaction mixture. Recombinant H-Ras-CVLS was prepared as described previously (26) from bacteria (31). Recombinant H-Ras-CVLL was prepared from bacteria (32).
FTase and GGTase I activities from 60,000×g supernatants of human Burkitt lymphoma (Daudi) cells (ATCC, Rockville, Md.) were assayed exactly as described previously for FTase (41). Inhibition studies were performed by determining the ability of Ras CAAX peptidomimetics to inhibit the transfer of [^3 H]-farnesyl and [^3 H]-geranylgeranyl from [^3 H]FPP and [^3 H]GGPP to H-ras-CVLS and H-Ras-CVLL, respectively (41).

[1] = Description: (§1) In this model, tumors from two human lung carcinoma cell lines are implanted subcutaneously. One of these (Calu-1) harbors a K-Ras oncogenic mutation and has a deletion of the tumor suppressor gene p53. The other human lung carcinoma ([…]) has no Ras mutations.
Rap1A processing [2] = conditions: 100 mg/kg
Experimental: (§2) A. Antitumor efficacy was carried out as described in FIG. 3 except that animals were randomly assigned to four groups each of 4 mice each (2 tumors per mouse). […] B. Ras processing was carried out 5 hours after the last treatement on day 17. Tumors were extracted from the animals, tissumized, and lysed in lysis buffer as described in FIG. 1. Lysates (25 μg) were electrophoresed on a 12.5% SDS-PAGE and immunoblotted with anti-Ras antibody Y13-238 as described previously. The blots were then reprobed with anti-Rap1A antibody (Santa Cruze Biotechnologies, Santa Cruz, Calif.).
(§3) The tumor sizes at the end of 17 days were 2490 mm^3 for saline, 1793 mm^3 for 10 mg/kg, 1226 mm^3 for 50 mg/kg and 624 mm^3 for 100 mg/kg treated animals. […] Tumors from control animals contained only fully processed Ras which migrates faster in SDS-PAGE gels (FIG. 11B). […] Thus, the extent of tumor growth inhibition correlated with the extent of inhibition of Ras processing.

[3] = system: H-RasF transformed NIH 3T3 cells
Experimental: as §2, §3

Ras processing = conditions: 10 to 100 mg/kg, 5 hrs after last injection
Experimental: as §2, §3

[4] = system: Calu-1 human lung carcinoma
Description: (§4) Calu-1 (Panel A) and NCI-H810 cells (Panel B) were purchased from ATCC and grown in McCoy's 5A medium in 10% FBS (Fetal Bovine Serum) and RPMI 1640 in 10% FBS, respectively. The cells were harvested, resuspended in PBS and injected s.c. into the right and left flank of 8 week old female nude mice (10^7 cells/flank). Nude mice (Harlan Sprague Dawley, Indianapolis, Ind.) were maintained in accordance with the Institutional Animal Care and Use Committee (IACUC) procedures and guidelines. On day 32 after s.c. implantation of tumors, animals were dosed i.p. with 0.2 ml once daily for 36 days. […] The tumor volumes were determined by measuring the length (l) and the width (w) and calculating the volume (V=(l)×(w)^2 /2). Data are presented as the average volume of eight tumors in each group for each cell line. Statistical significance between control and treated groups were evaluated by using student t test (*P<0.05).
as §1

[5] = system: Raf-transformed NIH 3T3 cells; conditions: 50 mg/kg once daily
[6] = system: NCI-H810 human lung carcinoma; conditions: 50 mg/kg once daily, 14 days of treatment
Description: as §4

[7] = system: oncogenic H-Ras activation of MAPK; assay: Oncogenic H-Ras activation of MAP kinase, immunoblot; assay type: cell-based; conditions: 0-30 μM, FIG. 20
Description: (§5) Equal amounts of protein were separated on a 15% SDS-PAGE, transferred to nitrocellulose, and immunoblotted using an anti-MAP kinase antibody (erk2, monoclonal, UB1, Lake Placid, N.Y.). Antibody reactions were visualized using peroxidase-conjugated donkey anti-mouse IgG (Jackson ImmunoResearch Laboratories Inc., West Grove, Pa.) and an enhanced chemiluminescence detection system (ECL, Amersham Corp.)

H-Ras processing = assay: Ras processing assay in H-RasF cells (NIH 3T3 transformed with oncogenic H-Ras-CVLS), immunoblot; assay type: cell-based; conditions: for pIC50: Mus musculus, NIH3T3, whole cells
Experimental: (§6) H-RasF cells (45) were seeded on day 0 in 100 mm Dishes (costar) in Dulbecco's modified Eagles medium (GIBCO) and allowed to grow to 40-60% confluency. […] On day 3, cells were washed one time with ice cold PBS and were collected and lysed by incubation for 30-60 min on ice in lysis buffer (41). Lysates were cleared (14,000 rpm, 4° C., 15 min) and supernatants collected. Equal amounts of lysate were separated on a 12.5% SDS-PAGE, transfered to nitrocellulose, and a western blot performed using a anti-Ras antibody (Y13-238, ATCC) or anti-Rap1A antibody (Santa Cruz Biotechnology, Santa Cruz, Calif.). Antibody reactions were visualized using peroxidase-conjugated goat anti-rat IgG for Y13-238 and peroxidase-conjugated goat anti-rabbit IgG for Rap1A and an enhanced chemiluminescence detection system (ECL; Amersham Corp.)
(§7) H-Ras cells (45) and K-Ras4B Cells (32) were kind gifts from Dr. Channing Der and Dr. Adrienne Cox (University of North Carolina, Chapel Hill). Means of obtaining these cell lines will be easily recognized by the skilled practitioner. Cells were seeded on day 0 in 100 mm dishes in Dulbecco's modified Eagles medium supplemented with 10% calf serum and 1% penicillin-streptomycin. […] On day 3, cells were washed and lysed in lysis buffer containing 50 mM HEPES, pH 7.5, 10 mM NaCl, 1% TX-100, 10% glycerol, 5 mM MgCl2, 1 mM EGTA, 25 μg/ml leupeptin, 2 mM PMSF, 2 mM Na3 VO4, 1 mg/ml soybean trypsin inhibitor, 10 μg/ml aprotinin, 6.4 mg/ml Sigma-104® phosphatase substrate. Lysates were cleared (14,000 rpm, 4° C., 15 min) and equal amounts of protein were separated on a 12.5% SDS-PAGE, transferred to nitrocellulose, and immunoblotted using an anti-Ras antibody (Y13-259, ATCC) or an anti-RapIA antibody (SC-65, Santa Cruz Biotechnology, Santa Cruz, Calif.). Antibody reactions were visualized using either peroxidase-conjugated goat anti-rat 1 gG (for Y13-259), or peroxidase-conjugated goat anti-rabbit 1 gG (for Rap1A) and an enhanced chemiluminescence detection (ECL, Amersham Corp.), as described previously (41).

Rap1A processing [8] = assay: Rap1A processing assay in NIH 3T3 cells overexpressing oncogenic H-Ras, immunoblot; assay type: cell-based; conditions: whole cells; for pIC50: Mus musculus, NIH3T3
Experimental: as §6, §7

[9] = system: K-Ras4B transformed NIH-3T3 cells; assay: Nude mouse xenograft, K-Ras4B transformed NIH-3T3 cells; assay type: in vivo, nude mice; conditions: for tumor size: two weeks
Experimental: In contrast, tumors from animals treated once daily with GGTI-286 (25 mg/kg or 50 mg/kg) grew to a size of 1600 mm^3 or 900 mm^3, respectively (FIG. 22).

K-Ras4B processing = K-Ras4B processing assay in NIH 3T3 cells overexpressing oncogenic K-Ras4B; assay type: cell-based; conditions: for pIC50: Mus musculus, NIH3T3, whole cells
Description: H-Ras cells (45) and K-Ras4B Cells (32) were kind gifts from Dr. Channing Der and Dr. Adrienne Cox (University of North Carolina, Chapel Hill). Means of obtaining these cell lines will be easily recognized by the skilled practitioner.

[10] = system: oncogenic K-Ras4B activation of MAP kinase; assay: Oncogenic K-Ras4B activation of MAP kinase, immunoblot; assay type: cell-based
Description: as §5

T1 sequence (P53609 whole entry): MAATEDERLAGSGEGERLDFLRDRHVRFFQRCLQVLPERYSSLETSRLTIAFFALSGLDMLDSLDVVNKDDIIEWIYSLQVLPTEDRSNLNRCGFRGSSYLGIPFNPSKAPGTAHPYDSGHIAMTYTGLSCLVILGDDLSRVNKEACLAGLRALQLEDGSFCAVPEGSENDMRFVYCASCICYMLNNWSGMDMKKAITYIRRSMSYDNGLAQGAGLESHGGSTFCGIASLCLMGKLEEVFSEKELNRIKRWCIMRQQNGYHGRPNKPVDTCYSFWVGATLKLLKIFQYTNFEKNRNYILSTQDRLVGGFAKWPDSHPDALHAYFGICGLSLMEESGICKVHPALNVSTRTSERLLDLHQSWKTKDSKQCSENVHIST

With `CSCC[C@H](NC(=O)c1ccc(NC[C@@H](N)CS)cc1-c1ccccc1)C(=O)O` [FTI-276, 4-N-[2(R)-Amino-3-mercaptopropyl]amino-2-phenylbenzoyl methionine] as the molecule, how does the pIC50 (GGTase I; Table 1, read-out: GGTase I IC50) read?
The pIC50 was 7.24.

And the pIC50 (GGTase I; Table 5, read-out: In Vitro IC50 GGTase I)?
The pIC50 was 7.30.

What about the pIC50 (GGTase I; read-out: GGTase I IC50) of the same molecule?
Its pIC50 is 7.30.

What about the weight loss ([1]; 50 mg/kg once daily for 36 days) of the same molecule?
Its weight loss is “no weight loss was observed”.

What about the toxicity ([1]; dose escalated to 180 mg/kg once daily) of the same molecule?
The toxicity was “lack of toxicity”.

And the “Rap1A processing in tumors” value (Rap1A processing [2])?
The value was “did not inhibit Rap1A processing”.

What about the “tumor size at the end of 17 days” value ([3]; 10 mg/kg) of the same molecule?
Its value is 1793 mm^3.

And the “tumor size at the end of 17 days” value ([3]; 50 mg/kg)?
Its value is 1226 mm^3.

What about the “tumor growth of H-RasF transformed NIH 3T3 cells” value ([3]; 50 mg/kg once daily) of the same molecule?
The value was “inhibited tumor growth”.

And the “tumor size at the end of 17 days” value ([3]; 100 mg/kg)?
The value was 624 mm^3.

And the “Ras processing in tumors” value (Ras processing)?
The value was “progressive accumulation of unprocessed Ras”.

What about the average tumor size ([4]; 50 mg/kg i.p. once daily, 64 days from tumor implantation) of the same molecule?
The average tumor size was 113 mm^3.

What about the “tumor growth of Calu-1” value ([4]; 50 mg/kg once daily) of the same molecule?
The value was “essentially blocked tumor growth”.

What about the “growth of Raf-transformed NIH 3T3 cells” value [5] of the same molecule?
Its value is “had no effect”.

What about the average tumor size [6] of the same molecule?
The average tumor size was 815 mm^3.

Which “inhibition of oncogenic H-Ras activation of MAP kinase” value [7] does the source give for `COC(=O)[C@H](CC(C)C)NC(=O)c1ccc(NC[C@@H](N)CS)cc1-c1ccccc1.Cl` [GGTI-286, 4-[2(R)-amino-3-mercaptopropyl]amino-2-phenylbenzoyl-(S)-leucine methyl ester hydrochloride] here?
The value was “inhibited only slightly”.

What about the “concentration needed for accumulation of unprocessed H-Ras” value (H-Ras processing; FIG. 18) of the same molecule?
Its value is at least 30 µM.

What about the pIC50 (H-Ras processing; Table 5, read-out: In Vivo Processing IC50 H-Ras) of the same molecule?
The pIC50 was under 4.52.

And the pIC50 (H-Ras processing; read-out: H-Ras processing IC50)?
The pIC50 was under 4.52.

What about the pIC50 (Rap1A processing [8]; Table 5, read-out: In Vivo Processing IC50 Rap1A) of the same molecule?
Its pIC50 is 5.70.

And the pIC50 (Rap1A processing [8]; read-out: Rap1A processing IC50)?
Its pIC50 is 5.70.

What about the “selectivity for inhibition of geranylgeranylation over farnesylation processing” value (Rap1A processing [8]) of the same molecule?
Its value is “more than 15 fold”.

What about the “inhibition of tumor growth” value ([9]; 25 mg/kg once daily) of the same molecule?
The value was 50%.

What about the tumor size ([9]; 25 mg/kg once daily) of the same molecule?
Its tumor size is 1600 mm^3.

What about the “inhibition of tumor growth” value ([9]; 50 mg/kg once daily) of the same molecule?
Its value is 70%.

What about the tumor size ([9]; 50 mg/kg once daily) of the same molecule?
Its tumor size is 900 mm^3.

And the “concentrations inhibiting K-Ras4B processing that had no effect on processing of farnesylated H-Ras” value (K-Ras4B processing)?
Its value is 1 to 3 µM.

What about the pIC50 (K-Ras4B processing; Table 5, read-out: In Vivo Processing IC50 K-Ras) of the same molecule?
Its pIC50 is 5.70.

And the pIC50 (K-Ras4B processing; read-out: K-Ras4B processing IC50)?
The pIC50 was 5.70.

What about the “concentration of complete block of K-Ras4B MAP kinase activation” value [10] of the same molecule?
Its value is 10 µM.

What about the pIC50 ([10]; read-out: IC50, inhibition of K-Ras4B MAP kinase activation) of the same molecule?
Its pIC50 is 6.00.
